According to PMC9826432 (Environmental Toxicology and Chemistry, 2022):

Key:
[1] = biological target: T1, human estrogen receptor α (ERα) (Homo sapiens, UniProt P03372); assay: ERα‐CALUX human cell-based reporter gene assay; conditions: based on PC10 values, 3 replicates, considering molecular weights
T1 sequence (P03372 1-595): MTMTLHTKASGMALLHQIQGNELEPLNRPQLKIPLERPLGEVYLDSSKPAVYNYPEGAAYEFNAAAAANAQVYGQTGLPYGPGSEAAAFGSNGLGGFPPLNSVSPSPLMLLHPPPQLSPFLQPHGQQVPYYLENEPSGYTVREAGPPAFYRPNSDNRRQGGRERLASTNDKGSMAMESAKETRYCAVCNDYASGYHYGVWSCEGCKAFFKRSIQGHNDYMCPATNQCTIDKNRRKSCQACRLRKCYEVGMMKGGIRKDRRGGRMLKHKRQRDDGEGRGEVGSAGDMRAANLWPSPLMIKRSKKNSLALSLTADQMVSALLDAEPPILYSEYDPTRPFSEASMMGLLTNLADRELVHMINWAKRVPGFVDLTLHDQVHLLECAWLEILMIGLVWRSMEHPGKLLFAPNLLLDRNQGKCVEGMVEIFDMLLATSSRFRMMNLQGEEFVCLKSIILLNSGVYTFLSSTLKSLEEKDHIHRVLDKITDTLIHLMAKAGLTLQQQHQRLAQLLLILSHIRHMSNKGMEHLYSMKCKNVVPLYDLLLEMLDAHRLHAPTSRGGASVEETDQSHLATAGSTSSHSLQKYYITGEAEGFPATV

[2] = biological target: T1, human estrogen receptor α (ERα); assay: lyticase Yeast Estrogen Screen; format: cell-based; conditions: L‐YES; based on PC10 values, 3 replicates, considering molecular weights
aquatic organisms = conditions: threshold for effluents, tenfold dilution assumed; ref Loos et al., 2018; cited from earlier work

| SMILES | REP (relative estrogenic potency in comparison to 17β‐estradiol) [1] | REP (relative estrogenic potency in comparison to 17β‐estradiol) [2] | 10× diluted PNEC (aquatic organisms) [ng/L] |
| --- | --- | --- | --- |
| CC(C)(c1ccc(O)cc1)c1ccc(O)cc1 [BPA, bisphenol A] | 4.2E−05 | 4.5E−05 | – |
| C#C[C@]1(O)CC[C@H]2[C@@H]3CCc4cc(O)ccc4[C@H]3CC[C@@]21C [EE2, 17α‐ethinylestradiol] | – | – | 0.35 |
